In one assay the target is HIV-1 protease (Human immunodeficiency virus type 1 group M subtype B, UniProt P04585). As to the kind of experiment: biochemical. The settings on record: Table VII. The text has this:
We measured the inhibition constants of the compounds listed in Table VII against HIV-1 protease using the above-cited method of Pennington et al.

For assay [1], the system named is HIVIIIb in CCRM-CEM cells. As to the kind of experiment: Anti-viral potency in CCRM-CEM cells acutely infected with HIVIIIb (method of Meek et al.), extracellular p24 antigen. The class given is cell-based, HIV-1. As to conditions: Human immunodeficiency virus 1, HIV replication, Table VIII, read-out: IC90 Range. The method, boiled down: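 Compounds in DMSO were added to CCRM-CEM cells (CD4+ human T-cell lymphoma) acutely infected with HIVIIIb following Meek et al. Inhibition of viral replication was determined from extracellular p24 antigen concentration measured by enzyme immunoassay.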

Regarding `CC(C)CN(C[C@H](O)[C@H](Cc1ccccc1)NC(=O)[C@H](CC(N)=O)NC(=O)c1ccc2ccccc2n1)S(=O)(=O)c1cccc2nonc12` [Compound 192], at HIV-1 protease, the Ki turned out to be 67 nM. Besides, the IC90 in assay [1] lay within 1000 to 10000 nM.

Usually Ki stands for a dissociation constant, usually derived from enzyme kinetics or from competition with a known ligand. A high value points to lower affinity. One may read the IC90 as the point of the concentration-response curve where the effect stands at 90%.

The values above are taken from patent publication US6004957A, “Sulfonamide inhibitors of aspartyl protease” (Vertex Pharmaceuticals, Incorporated, priority 1998, dated 1999).
